Test results reported in ChEMBL document CHEMBL1165992, “A statistical analysis of in vitro human microsomal metabolic stability of small phenyl group substituents, leading to improved design sets for parallel SAR exploration of a chemical series” (Bioorg Med Chem, 2010).
pIC50: −log10 of the molar value.

System: not listed separately
Assay: in vitro
Details: human, liver microsomes
Description: Intrinsic clearance in human liver microsomes assessed per mg of microsomal protein at 0.2 to 1 uM after 30 mins by HPLC analysis
With `O=C(c1ccc(F)cc1)C1CCN(C(=O)c2cccc(F)c2)CC1` the microsomal CLint at 0.5 h, 1 µM was 31.9 µL/min/mg. `CCN(C(=O)NCc1ccc(S(C)(=O)=O)cc1)C1CCN(CCC(c2ccc(F)cc2)C2CCN(Cc3cccnc3)CC2)CC1` (configuration not stated) showed a microsomal CLint at 0.5 h, 1 µM of 5 µL/min/mg. Compound `CCN(C(=O)NCc1ccc(S(C)(=O)=O)cc1)C1CCN(CCC(c2ccc(F)cc2)C2CCN(Cc3ccc4ccccc4n3)CC2)CC1` (configuration not stated) has a microsomal CLint at 0.5 h, 1 µM of 3 µL/min/mg. `CCN(C(=O)NCc1ccc(S(C)(=O)=O)cc1)C1CCN(CCC(c2ccccc2)C2CCN(Cc3cccnc3)CC2)CC1` (configuration not stated) showed a microsomal CLint at 0.5 h, 1 µM of over 150 µL/min/mg. `O=C(c1ccc(F)cc1)C1CCN(C(=O)c2ccc(Cl)c(Cl)c2)CC1` gave a microsomal CLint at 0.5 h, 1 µM of 16.5 µL/min/mg. Work on `CCN(C(=O)NCc1cccc(F)c1)C1CCN(CCC(c2ccccc2)c2ccccc2)CC1` yielded a microsomal CLint at 0.5 h, 1 µM of 86 µL/min/mg. For `CCN(C(=O)NCc1ccccc1F)C1CCN(CCC(c2ccccc2)c2ccccc2)CC1`, the microsomal CLint at 0.5 h, 1 µM was 74 µL/min/mg. `NS(=O)(=O)c1cccc(C(=O)N2CCC(C(=O)c3ccc(F)cc3)CC2)c1` gave a microsomal CLint at 0.5 h, 1 µM of 13 µL/min/mg. For `O=C(c1ccc(F)cc1)C1CCN(C(=O)c2cccc(C(F)(F)F)c2)CC1`, the microsomal CLint at 0.5 h, 1 µM was 13.7 µL/min/mg. `O=C(c1ccc(F)cc1)C1CCN(C(=O)c2ccc(-c3ccccc3)cc2)CC1` showed a microsomal CLint at 0.5 h, 1 µM of 4.93 µL/min/mg. `O=C(c1ccc(F)cc1)C1CCN(C(=O)c2ccc(Cl)cc2Cl)CC1` gave a microsomal CLint at 0.5 h, 1 µM of 41.2 µL/min/mg. In the case of `O=C(c1ccc(F)cc1)C1CCN(C(=O)c2cccc(Cl)c2)CC1`, the microsomal CLint at 0.5 h, 1 µM was 22.2 µL/min/mg. `O=C(c1ccc(F)cc1)C1CCN(C(=O)c2cc(F)cc(F)c2)CC1` gave a microsomal CLint at 0.5 h, 1 µM of 25.3 µL/min/mg. `COc1ccccc1C(=O)N1CCC(C(=O)c2ccc(F)cc2)CC1` showed a microsomal CLint at 0.5 h, 1 µM of 14.3 µL/min/mg. Compound `CS(=O)(=O)c1cccc(C(=O)N2CCC(C(=O)c3ccc(F)cc3)CC2)c1` has a microsomal CLint at 0.5 h, 1 µM of 11.4 µL/min/mg. For `COc1cccc(C(=O)N2CCC(C(=O)c3ccc(F)cc3)CC2)c1`, the microsomal CLint at 0.5 h, 1 µM was 12.9 µL/min/mg. With `Nc1ccccc1C(=O)N1CCC(C(=O)c2ccc(F)cc2)CC1` the microsomal CLint at 0.5 h, 1 µM was 15.6 µL/min/mg. With `O=C(c1ccc(F)cc1)C1CCN(C(=O)c2ccccc2Cl)CC1` the microsomal CLint at 0.5 h, 1 µM was 32.6 µL/min/mg. `O=C(c1ccc(F)cc1)C1CCN(C(=O)c2ccccc2)CC1` gave a microsomal CLint at 0.5 h, 1 µM of 23 µL/min/mg. In the case of `O=C(c1ccc(F)cc1)C1CCN(C(=O)c2ccccc2OC(F)(F)F)CC1`, the microsomal CLint at 0.5 h, 1 µM was 16.9 µL/min/mg. For `O=C(c1ccc(F)cc1)C1CCN(C(=O)c2cccc(Br)c2)CC1`, the microsomal CLint at 0.5 h, 1 µM was 19.3 µL/min/mg. Work on `CCN(C(=O)NCc1c(F)cccc1F)C1CCN(CCC(c2ccccc2)c2ccccc2)CC1` yielded a microsomal CLint at 0.5 h, 1 µM of 6 µL/min/mg. `CN(C)c1cccc(C(=O)N2CCC(C(=O)c3ccc(F)cc3)CC2)c1` gave a microsomal CLint at 0.5 h, 1 µM of 53.5 µL/min/mg. `O=C(c1ccc(F)cc1)C1CCN(C(=O)c2ccc(C(F)(F)F)cc2)CC1` gave a microsomal CLint at 0.5 h, 1 µM of 15.5 µL/min/mg. `COc1ccc(C(=O)N2CCC(C(=O)c3ccc(F)cc3)CC2)c(OC)c1` showed a microsomal CLint at 0.5 h, 1 µM of 15.8 µL/min/mg. With `N#Cc1cccc(C(=O)N2CCC(C(=O)c3ccc(F)cc3)CC2)c1` the microsomal CLint at 0.5 h, 1 µM was 14.5 µL/min/mg. Compound `COc1ccc(C(=O)N2CCC(C(=O)c3ccc(F)cc3)CC2)cc1` has a microsomal CLint at 0.5 h, 1 µM of 22.6 µL/min/mg. Compound `O=C(c1ccc(F)cc1)C1CCN(C(=O)c2ccccc2F)CC1` has a microsomal CLint at 0.5 h, 1 µM of 46.5 µL/min/mg. In the case of `O=C(c1ccc(F)cc1)C1CCN(C(=O)c2ccc(N3CCOCC3)cc2)CC1`, the microsomal CLint at 0.5 h, 1 µM was 15.2 µL/min/mg. With `Cc1cccc(C(=O)N2CCC(C(=O)c3ccc(F)cc3)CC2)c1` the microsomal CLint at 0.5 h, 1 µM was 43.6 µL/min/mg. In the case of `COc1cccc(C(=O)N2CCC(C(=O)c3ccc(F)cc3)CC2)c1OC`, the microsomal CLint at 0.5 h, 1 µM was 14.9 µL/min/mg. `O=C(c1ccc(F)cc1)C1CCN(C(=O)c2cccc(F)c2F)CC1` gave a microsomal CLint at 0.5 h, 1 µM of 18 µL/min/mg. `O=C(c1ccc(F)cc1)C1CCN(C(=O)c2ccc(Cl)c(C(F)(F)F)c2)CC1` gave a microsomal CLint at 0.5 h, 1 µM of 11.5 µL/min/mg. For `NS(=O)(=O)c1ccc(C(=O)N2CCC(C(=O)c3ccc(F)cc3)CC2)cc1`, the microsomal CLint at 0.5 h, 1 µM was 12.3 µL/min/mg. In the case of `O=C(c1ccc(F)cc1)C1CCN(C(=O)c2ccc(F)cc2)CC1`, the microsomal CLint at 0.5 h, 1 µM was 17.1 µL/min/mg. Work on `CC(=O)c1ccc(C(=O)N2CCC(C(=O)c3ccc(F)cc3)CC2)cc1` yielded a microsomal CLint at 0.5 h, 1 µM of 19.8 µL/min/mg. For `CCN(C(=O)NCc1ccc(S(C)(=O)=O)cc1)C1CCN(CCC(c2ccccc2)C2CCN(Cc3ccc4ccccc4n3)CC2)CC1` (configuration not stated), the microsomal CLint at 0.5 h, 1 µM was over 150 µL/min/mg. For `CS(=O)(=O)Nc1cccc(C(=O)N2CCC(C(=O)c3ccc(F)cc3)CC2)c1`, the microsomal CLint at 0.5 h, 1 µM was 9.23 µL/min/mg. Compound `Cc1ccc(C(=O)N2CCC(C(=O)c3ccc(F)cc3)CC2)cc1` has a microsomal CLint at 0.5 h, 1 µM of 41.8 µL/min/mg. For `CS(=O)(=O)c1ccc(C(=O)N2CCC(C(=O)c3ccc(F)cc3)CC2)cc1`, the microsomal CLint at 0.5 h, 1 µM was 12.4 µL/min/mg. Compound `Cc1ccccc1C(=O)N1CCC(C(=O)c2ccc(F)cc2)CC1` has a microsomal CLint at 0.5 h, 1 µM of 23.5 µL/min/mg. `O=C(c1ccc(F)cc1)C1CCN(C(=O)c2ccc(OC(F)(F)F)cc2)CC1` gave a microsomal CLint at 0.5 h, 1 µM of 17.9 µL/min/mg. Compound `CCN(C(=O)NCc1cc(F)cc(F)c1)C1CCN(CCC(c2ccccc2)c2ccccc2)CC1` has a microsomal CLint at 0.5 h, 1 µM of under 3 µL/min/mg. `Cc1ncc(-c2ccnc(Nc3ccccc3)n2)n1C(C)C` gave a microsomal CLint at 0.5 h, 1 µM of 63.5 µL/min/mg. `O=C(c1ccc(F)cc1)C1CCN(C(=O)c2ccc(Cl)cc2)CC1` gave a microsomal CLint at 0.5 h, 1 µM of 18.6 µL/min/mg. `O=C(c1ccc(F)cc1)C1CCN(C(=O)c2cccc(OC(F)(F)F)c2)CC1` showed a microsomal CLint at 0.5 h, 1 µM of 31.8 µL/min/mg. For `O=C(c1ccc(F)cc1)C1CCN(C(=O)c2ccc(F)cc2Cl)CC1`, the microsomal CLint at 0.5 h, 1 µM was 18 µL/min/mg. For `O=C(c1ccc(F)cc1)C1CCN(C(=O)c2ccc(F)c(F)c2)CC1`, the microsomal CLint at 0.5 h, 1 µM was 12.5 µL/min/mg. For `N#Cc1ccccc1C(=O)N1CCC(C(=O)c2ccc(F)cc2)CC1`, the microsomal CLint at 0.5 h, 1 µM was 28.4 µL/min/mg. Compound `N#Cc1ccc(C(=O)N2CCC(C(=O)c3ccc(F)cc3)CC2)cc1` has a microsomal CLint at 0.5 h, 1 µM of 11.7 µL/min/mg. With `O=C(c1ccc(F)cc1)C1CCN(C(=O)c2cccc([N+](=O)[O-])c2)CC1` the microsomal CLint at 0.5 h, 1 µM was 5.3 µL/min/mg. In the case of `O=C(c1ccc(F)cc1)C1CCN(C(=O)c2ccc([N+](=O)[O-])cc2)CC1`, the microsomal CLint at 0.5 h, 1 µM was 9 µL/min/mg. For `O=C(c1ccc(F)cc1)C1CCN(C(=O)c2ccc(Br)cc2)CC1`, the microsomal CLint at 0.5 h, 1 µM was 22.7 µL/min/mg. For `CCN(C(=O)NCc1cc(F)ccc1F)C1CCN(CCC(c2ccccc2)c2ccccc2)CC1`, the microsomal CLint at 0.5 h, 1 µM was under 4 µL/min/mg.

Same assay, conditions: human, microsomes
With `CCN(C(=O)NCc1ccc(F)cc1)C1CCN(CCC(c2ccccc2)c2ccccc2)CC1` the microsomal CLint at 0.5 h, 1 µM was 105 µL/min/mg.

Molecular target: 11-beta-hydroxysteroid dehydrogenase 1 (Homo sapiens, UniProt P28845)
Sequence (P28845 whole entry): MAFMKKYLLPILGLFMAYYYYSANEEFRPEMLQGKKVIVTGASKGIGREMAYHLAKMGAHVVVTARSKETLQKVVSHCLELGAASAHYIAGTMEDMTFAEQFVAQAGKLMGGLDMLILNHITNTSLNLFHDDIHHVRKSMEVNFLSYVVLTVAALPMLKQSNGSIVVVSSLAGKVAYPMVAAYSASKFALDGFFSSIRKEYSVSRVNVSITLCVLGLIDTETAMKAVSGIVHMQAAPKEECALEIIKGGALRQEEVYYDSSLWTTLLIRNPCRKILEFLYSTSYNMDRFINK
Assay: Inhibition of human 11beta-HSD1 by competitive binding assay
Details: not given
In the case of `NS(=O)(=O)c1cccc(C(=O)N2CCC(C(=O)c3ccc(F)cc3)CC2)c1`, the pIC50 was under 4.52. For `O=C(c1ccc(F)cc1)C1CCN(C(=O)c2ccc(Cl)cc2Cl)CC1`, the pIC50 was under 4.52. `O=C(c1ccc(F)cc1)C1CCN(C(=O)c2cc(F)cc(F)c2)CC1` gave a pIC50 of under 4.52. Work on `COc1ccccc1C(=O)N1CCC(C(=O)c2ccc(F)cc2)CC1` yielded a pIC50 of 4.63. In the case of `CS(=O)(=O)c1cccc(C(=O)N2CCC(C(=O)c3ccc(F)cc3)CC2)c1`, the pIC50 was under 4.52. In the case of `O=C(c1ccc(F)cc1)C1CCN(C(=O)c2ccccc2)CC1`, the pIC50 was 5.44. Compound `N#Cc1cccc(C(=O)N2CCC(C(=O)c3ccc(F)cc3)CC2)c1` has a pIC50 of under 4.52. In the case of `COc1ccc(C(=O)N2CCC(C(=O)c3ccc(F)cc3)CC2)cc1`, the pIC50 was 4.80. Work on `O=C(c1ccc(F)cc1)C1CCN(C(=O)c2ccccc2F)CC1` yielded a pIC50 of 5.13. In the case of `O=C(c1ccc(F)cc1)C1CCN(C(=O)c2cccc(F)c2F)CC1`, the pIC50 was under 4.52. For `NS(=O)(=O)c1ccc(C(=O)N2CCC(C(=O)c3ccc(F)cc3)CC2)cc1`, the pIC50 was under 4.52. Compound `O=C(c1ccc(F)cc1)C1CCN(C(=O)c2ccc(F)cc2)CC1` has a pIC50 of 4.66. `CS(=O)(=O)Nc1cccc(C(=O)N2CCC(C(=O)c3ccc(F)cc3)CC2)c1` gave a pIC50 of under 4.52. Work on `Cc1ccc(C(=O)N2CCC(C(=O)c3ccc(F)cc3)CC2)cc1` yielded a pIC50 of 5.47. Work on `CS(=O)(=O)c1ccc(C(=O)N2CCC(C(=O)c3ccc(F)cc3)CC2)cc1` yielded a pIC50 of under 4.52. Work on `O=C(c1ccc(F)cc1)C1CCN(C(=O)c2ccc(Cl)cc2)CC1` yielded a pIC50 of 5.22. `N#Cc1ccc(C(=O)N2CCC(C(=O)c3ccc(F)cc3)CC2)cc1` showed a pIC50 of under 4.52.
